Assay results taken from US12709592B2, “Salts of treprostinil” (United Therapeutics Corporation, priority 2013, dated 2026).
Counter-ions that a name gives are not always drawn.

Experiment: TGA data of UT-15 salts (thermal degradation)
Assay type: physicochemical
Details: thermogravimetric analysis of the isolated solid salt; temperature beyond which weight loss due to degradation occurs
From the text: For all new UT-15 salts, analytical data: IH-NMR, 13C_NMR, IR, purity by HPLC, DSC data, TGA data, water contents, specific rotation were collected.

Structure (SMILES) | TGA: loss due to degradation beyond
CCCCC[C@H](O)CC[C@@H]1[C@H]2Cc3cccc(OCC(=O)O)c3C[C@H]2C[C@H]1O [Arginine Salt] | Moisture = 2.07, degradation beyond 200 °C
CCCCC[C@H](O)CC[C@@H]1[C@H]2Cc3cccc(OCC(=O)O)c3C[C@H]2C[C@H]1O [Choline Salt] | degradation beyond 150 °C
CCCCC[C@H](O)CC[C@@H]1[C@H]2Cc3cccc(OCC(=O)O)c3C[C@H]2C[C@H]1O [L-Lysine Salt] | degradation beyond 200 °C
CCCCC[C@H](O)CC[C@@H]1[C@H]2Cc3cccc(OCC(=O)[O][MgH])c3C[C@H]2C[C@H]1O [Mg Salt] | degradation beyond 250 °C
CCCCC[C@H](O)CC[C@@H]1[C@H]2Cc3cccc(OCC(=O)O)c3C[C@H]2C[C@H]1O [N-Methylglucamine Salt] | degradation beyond 150 °C
CCCCC[C@H](O)CC[C@@H]1[C@H]2Cc3cccc(OCC(=O)[O-])c3C[C@H]2C[C@H]1O.[K+] [Potassium Salt] | degradation beyond 250 °C
